Consider one molecule from patent US20230277444A1, “FORMULATIONS OF PTHrP ANALOGUES, TRANSDERMAL PATCHES THEREOF, AND USES THEREOF” (priority 2018, published 2023).

For data set [1] the following is noted: cynomolgus monkey, in vivo, sc.
Experimental: (§1) Microneedle transdermal patches coated with various formulations of the PTHrP analogue of SEQ ID NO:1 were provided ready for use and stored refrigerated at 2-8° C. At least one hour prior to use, the transdermal patches in individual pouches were placed at room temperature. Eight female non-naïve Chinese Cynomolgus monkeys (2-4 kg at time of dosing) were included in the study. The same eight animals were used to test each formulation, with a three day washout period between tests.
(§2) Time points were calculated from the time of patch application at 5 minutes, 10 minutes, 20 minutes, 30 minutes, 1 hour, and 1.5 hours post-dose. A time point of pre-dose was taken at Day 1. 1.5 mL of whole blood was collected at each time point. K3EDTA/aprotinin was used as an anti-coagulant.
(§3) Each animal received a fixed dose of SEQ ID NO:1 without correcting for body weight. The dose administration was performed as follows:
(§4) Day 1: Test material was delivered by application of a transdermal patch. The skin was prepared 24 hours prior to each transdermal patch application as follows: a small area (5×5 cm) of the dorsal flank was prepared by close clipping of the hair with a small animal clipper. Care was taken during the clipping procedure to avoid abrasion of the skin. Both sides of the dorsal flank (thigh) were prepared for each administration to ensure a side without skin irritation was used for dose administration. Fifteen (15) minutes prior to patch application the skin was wiped with an alcohol swab. Extra care was taken to ensure the collar of the path was firmly attached to the applicator prior to application and that the transdermal patch was firmly seated on the leg for administration.
(§5) The skin was prepared 24 hours prior to each transdermal patch application as described above. Extra care was taken to ensure the collar of the path is firmly attached to the applicator prior to application and that the transdermal patch was firmly seated on the leg for administration.
(§6) A line was drawn around the site of administration to enable post dose observations. After patch removal, the transdermal patch was analyzed for residual content.
(§7) Any abnormalities were recorded by exception and reported immediately. Each dose site at pre-dose, 1 hour and 24 hours post-dose was scored using the Draize scoring system. Body weights of the animals were recorded prior to Day 1.
(§8) All blood samples were collected from a peripheral vessel. At Day 1, 1.5 mL of whole blood was collected pre-dose into a K3EDTA/aprotinin tube containing 15 μL (of 2.5 mg protein/mL/aprotinin solution) per ml of whole blood. […] Whole blood samples were collected within ±5% of the scheduled collection time, with actual collection times recorded. Samples were kept on wet ice until processed.
(§9) The whole blood samples were processed to plasma. […] Plasma samples were transferred to two approximately equal aliquots (aliquot 1 and aliquot 2). Samples were frozen at −70° C.±10° C.
A short description of another data set: in vivo. The conditions noted are these: female, Chinese Cynomolgus, cynomolgus monkey, sc.

A word on the Cmax: it is the maximum level reached in the sampled fluid or tissue. For orientation: Tmax means the time from dosing to the highest level. Usually half-life stands for the time in which the quantity being followed falls by half. The low end stands for fast loss, the high end for slow loss.

Experimental for in vivo: as §1, §2, §3, §4, §5, §6, §7, §8, §9

`CC[C@H](C)[C@H](NC(=O)[C@H](CO)NC(=O)[C@H](CCCCN)NC(=O)CNC(=O)[C@H](CCCCN)NC(=O)[C@H](CC(=O)O)NC(=O)[C@H](Cc1cnc[nH]1)NC(=O)[C@H](CC(C)C)NC(=O)[C@H](CC(C)C)NC(=O)[C@H](CCC(N)=O)NC(=O)[C@H](Cc1cnc[nH]1)NC(=O)[C@H](CCC(=O)O)NC(=O)[C@H](CO)NC(=O)[C@@H](NC(=O)[C@H](C)N)C(C)C)C(=O)N[C@@H](CCC(N)=O)C(=O)N[C@@H](CC(=O)O)C(=O)N[C@@H](CC(C)C)C(=O)N[C@@H](CCCNC(=N)N)C(=O)N[C@@H](CCCNC(=N)N)C(=O)N[C@@H](CCCNC(=N)N)C(=O)N[C@@H](CCC(=O)O)C(=O)N[C@@H](CC(C)C)C(=O)N[C@@H](CC(C)C)C(=O)N[C@@H](CCC(=O)O)C(=O)N[C@@H](CCCCN)C(=O)N[C@@H](CC(C)C)C(=O)N[C@@H](CC(C)C)C(=O)NC(C)(C)C(=O)N[C@@H](CCCCN)C(=O)N[C@@H](CC(C)C)C(=O)N[C@@H](Cc1cnc[nH]1)C(=O)N[C@H](C(=O)N[C@@H](C)C(N)=O)[C@@H](C)O` [Abaloparatide, [Glu^22,25, Leu^23,28,31, Aib^29, Lys^26,30]hPTHrP(1-34)NH2]: the AUC in data set [1] came to 131610. Further, in “in vivo”, the concentration peaked (Cmax) at 3.34 ng/mL, the Tmax is 7 min, the half-life was 14 min and the level at 5 min turned out to be 1.9 ng/mL. In the data set “in vivo”, this molecule had a level at 10 min of 0.88 ng/mL, a level at 20 min of 0.542 ng/mL, a level at 0.5 h of 0.222 ng/mL and a level at 1 h of 0.12 ng/mL.
